Literature values as cited in article PMC9516332 (Frontiers in Oncology, 2022).
Where two headings read alike, the source gives them in different places.

What was measured:
[1] = biological target: panel of 255 wild-type kinases (Homo sapiens, UniProt O96017); conditions: CHK2 kinase assay, 1 µmol/L single concentration, cited from earlier work
[2] = biological target: panel of 255 wild-type kinases (Homo sapiens, UniProt P16234); conditions: kinase PDGFRα, 1 µmol/L single concentration, cited from earlier work
[3] = biological target: panel of 255 wild-type kinases (Homo sapiens, UniProt P23458); conditions: kinase JAK1, 1 µmol/L single concentration, cited from earlier work
[4] = biological target: panel of 255 wild-type kinases (Homo sapiens, UniProt P27361); conditions: kinase Erk1, 1 µmol/L single concentration, cited from earlier work
[5] = biological target: panel of 255 wild-type kinases (Homo sapiens, UniProt Q05655); conditions: kinase PKCδ, 1 µmol/L single concentration, cited from earlier work
[6] = biological target: panel of 255 wild-type kinases (Homo sapiens, UniProt Q07912); conditions: ACK kinase assay, 1 µmol/L single concentration, cited from earlier work
[7] = biological target: panel of 255 wild-type kinases (Homo sapiens, UniProt Q14680); conditions: MELK, 1 µmol/L single concentration, cited from earlier work
[8] = biological target: panel of 255 wild-type kinases (Homo sapiens, UniProt Q15208); conditions: NDR1, 1 µmol/L single concentration, cited from earlier work
[9] = biological target: panel of 255 wild-type kinases (Homo sapiens, UniProt Q15759); conditions: p38β, 1 µmol/L single concentration, cited from earlier work
[10] = biological target: panel of 255 wild-type kinases (Homo sapiens, UniProt Q86Z02); conditions: kinase HIPK1, 1 µmol/L single concentration, cited from earlier work
[11] = biological target: T1, panel of 255 wild-type kinases (Homo sapiens, UniProt Q9BXA7); conditions: kinase TSSK1, 1 µmol/L single concentration, cited from earlier work
T1 sequence (Q9BXA7 1-367): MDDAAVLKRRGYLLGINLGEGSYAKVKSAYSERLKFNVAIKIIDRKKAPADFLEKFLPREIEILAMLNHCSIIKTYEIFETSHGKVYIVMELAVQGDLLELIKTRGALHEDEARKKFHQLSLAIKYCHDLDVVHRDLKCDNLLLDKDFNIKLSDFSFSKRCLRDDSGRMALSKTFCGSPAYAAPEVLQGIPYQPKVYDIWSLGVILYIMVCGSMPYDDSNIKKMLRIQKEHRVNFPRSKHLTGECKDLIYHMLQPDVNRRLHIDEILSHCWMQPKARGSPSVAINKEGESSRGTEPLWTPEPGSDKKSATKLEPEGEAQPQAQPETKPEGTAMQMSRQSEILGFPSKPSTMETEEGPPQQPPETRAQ

[12] = biological target: T2, panel of 255 wild-type kinases (Homo sapiens, UniProt Q9UF33); conditions: kinase EPHA6, 1 µmol/L single concentration, cited from earlier work
T2 sequence (Q9UF33 23-1036): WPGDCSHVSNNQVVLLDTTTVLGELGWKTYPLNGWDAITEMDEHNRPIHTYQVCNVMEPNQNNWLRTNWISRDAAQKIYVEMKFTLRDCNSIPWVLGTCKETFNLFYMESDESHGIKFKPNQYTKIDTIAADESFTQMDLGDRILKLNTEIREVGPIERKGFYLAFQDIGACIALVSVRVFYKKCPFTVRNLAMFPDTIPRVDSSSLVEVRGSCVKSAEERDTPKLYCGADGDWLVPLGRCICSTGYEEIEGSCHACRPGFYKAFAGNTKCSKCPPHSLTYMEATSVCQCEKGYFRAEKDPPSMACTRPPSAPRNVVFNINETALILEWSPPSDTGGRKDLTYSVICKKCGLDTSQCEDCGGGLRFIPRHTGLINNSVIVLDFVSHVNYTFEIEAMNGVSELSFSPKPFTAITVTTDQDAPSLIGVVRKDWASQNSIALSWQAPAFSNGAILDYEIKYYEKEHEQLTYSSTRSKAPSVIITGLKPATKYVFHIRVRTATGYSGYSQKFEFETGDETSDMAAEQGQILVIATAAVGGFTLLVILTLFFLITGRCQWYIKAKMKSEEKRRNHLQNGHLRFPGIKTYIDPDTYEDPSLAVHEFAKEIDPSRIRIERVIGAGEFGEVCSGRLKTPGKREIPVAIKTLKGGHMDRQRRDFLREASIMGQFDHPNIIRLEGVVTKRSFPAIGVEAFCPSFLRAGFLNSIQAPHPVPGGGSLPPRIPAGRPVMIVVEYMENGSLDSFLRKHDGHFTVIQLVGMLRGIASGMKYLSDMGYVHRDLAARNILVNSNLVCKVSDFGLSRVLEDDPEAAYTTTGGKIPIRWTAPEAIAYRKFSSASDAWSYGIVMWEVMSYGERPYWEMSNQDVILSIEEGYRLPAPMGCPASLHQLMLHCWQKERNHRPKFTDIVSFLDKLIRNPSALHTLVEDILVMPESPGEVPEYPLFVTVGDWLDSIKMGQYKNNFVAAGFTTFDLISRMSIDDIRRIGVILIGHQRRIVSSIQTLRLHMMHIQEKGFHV

[13] = ref DOI: 10.1158/1535-7163.MCT-18-0877
[14] = ref DOI: 10.1371/journal.pone.0092146

SMILES	%-inhibition CHK2 [1, 14] [%]	%-inhibition at 1 µmol/L, PDGFRα [2, 14] [%]	%-inhibition at 1 µmol/L, JAK1 [3, 14] [%]	%-inhibition at 1 µmol/L, Erk1 [4, 14] [%]	%-inhibition at 1 µmol/L, PKCδ [5, 14] [%]	%-inhibition ACK [6, 14] [%]	%-inhibition, MELK [7, 14] [%]	%-inhibition, NDR1 [8, 14] [%]	%-inhibition, p38β [9, 14] [%]	%-inhibition at 1 µmol/L, HIPK1 [10, 14] [%]	%-inhibition at 1 µmol/L, TSSK1 [11, 14] [%]	%-inhibition at 1 µmol/L, EPHA6 [12, 14] [%]	further results
C=CC(=O)Nc1cc(Nc2nccc(-c3cn(C)c4ccccc34)n2)c(OC)cc1N(C)CCN(C)C [osimertinib]	–	–	–	–	–	–	–	–	–	–	–	–	%-inhibition CHK2 [1, 13]: 6%; %-inhibition at 1 µmol/L, PDGFRα [2, 13]: 69%; %-inhibition at 1 µmol/L, JAK1 [3, 13]: -6%; %-inhibition at 1 µmol/L, Erk1 [4, 13]: -3.18%; %-inhibition at 1 µmol/L, PKCδ [5, 13]: 16%; %-inhibition ACK [6, 13]: 100%; %-inhibition, MELK [7, 13]: 2.22%; %-inhibition, NDR1 [8, 13]: 13%; %-inhibition, p38β [9, 13]: 4.56%; %-inhibition at 1 µmol/L, HIPK1 [10, 13]: 34%; %-inhibition at 1 µmol/L, TSSK1 [11, 13]: 76%; %-inhibition at 1 µmol/L, EPHA6 [12, 13]: 2.33%
CC(=O)Nc1cccc(-n2c(=O)n(C3CC3)c(=O)c3c(Nc4ccc(I)cc4F)n(C)c(=O)c(C)c32)c1 [trametinib]	-5	4.53	-1.83	-1.14	-4.75	-5.39	-0.588	-1.68	2.31	-3.71	-5	-2.51	–
CCCS(=O)(=O)Nc1ccc(F)c(C(=O)c2c[nH]c3ncc(-c4ccc(Cl)cc4)cc23)c1F [vemurafenib]	6.32	87	46	0.0533	-5	40	4	-3.81	24	-4.72	-4	37	–
